Experimental data reported in ChEMBL document CHEMBL4359841, “Late-Stage Functionalization of Platensimycin Leading to Multiple Analogues with Improved Antibacterial Activity in Vitro and in Vivo” (2019).
Converted amounts (≈) assume the structure as drawn. The source made the active and inactive calls. Unless noted, the calls are words filed in the database; no cut-off is given here.

Legend:
[1] = test system: Staphylococcus aureus; assay: Inhibition of FabB/FabF in methicillin-resistant Staphylococcus aureus assessed as antibacterial activity at 2 ug/disk after 18 hrs by agar disk diffusion method
[2] = test system: Staphylococcus aureus; assay: Inhibition of FabB/FabF in methicillin-resistant Staphylococcus aureus 3111 clinical isolate assessed as antibacterial activity after 16 hrs by agar dilution method
[3] = test system: Staphylococcus aureus; assay: Inhibition of FabB/FabF in methicillin-sensitive Staphylococcus aureus 2955 clinical isolate assessed as antibacterial activity after 16 hrs by agar dilution method
[4] = test system: Staphylococcus aureus; assay: Antibacterial activity against methicillin-resistant Staphylococcus aureus infected in BALB/c mouse model of skin infection assessed as bacterial load in skin lesions at 2 mg administered topically as ointment twice daily for 7 days and measured at 24 hrs post last dose (7.9 +/- 0.9 x 10^8 CFU/g); assay type: functional
[5] = test system: Staphylococcus aureus; assay: Inhibition of FabB/FabF in methicillin-resistant Staphylococcus aureus 3193 clinical isolate assessed as antibacterial activity after 16 hrs by agar dilution method
[6] = test system: Staphylococcus aureus; assay: Inhibition of FabB/FabF in methicillin-resistant Staphylococcus aureus 3104 clinical isolate assessed as antibacterial activity after 16 hrs by agar dilution method
[7] = test system: Staphylococcus aureus; assay: Antibacterial activity against methicillin-resistant Staphylococcus aureus infected in BALB/c mouse model of skin wound assessed as reduction in appearance of secondary scald at 2 mg administered topically as ointment twice daily for 7 days and measured after 24 hrs by visual inspection method; assay type: functional, organism-based
[8] = test system: Staphylococcus aureus; assay: Inhibition of FabB/FabF in methicillin-resistant Staphylococcus aureus 3114 clinical isolate assessed as antibacterial activity after 16 hrs by agar dilution method
[9] = test system: Staphylococcus aureus; assay: Inhibition of FabB/FabF in methicillin-resistant Staphylococcus aureus assessed as antibacterial activity at 5 ug/disk after 18 hrs by agar disk diffusion method
[10] = test system: Staphylococcus aureus; assay: Antibacterial activity against methicillin-resistant Staphylococcus aureus infected in BALB/c mouse model of skin wound assessed as reduction in detachment of epidermis from dermis at 2 mg administered topically as ointment twice daily for 7 days and measured after 24 hrs by visual inspection method; assay type: functional, organism-based
[11] = test system: Staphylococcus aureus; assay: Antibacterial activity against methicillin-resistant Staphylococcus aureus infected in C57BL/6J mouse model of peritonitis assessed as mouse survival at 30 to 50 mg/kg, po administered via gavage measured after 2 days; assay type: functional, organism-based
[12] = test system: Staphylococcus aureus; assay: Inhibition of FabB/FabF in methicillin-resistant Staphylococcus aureus 3093 clinical isolate assessed as antibacterial activity after 16 hrs by agar dilution method
[13] = test system: Staphylococcus aureus; assay: Inhibition of FabB/FabF in methicillin-resistant Staphylococcus aureus 2980 clinical isolate assessed as antibacterial activity after 16 hrs by agar dilution method
[14] = test system: Staphylococcus aureus; assay: Inhibition of FabB/FabF in methicillin-resistant Staphylococcus aureus 3156 clinical isolate assessed as antibacterial activity after 16 hrs by agar dilution method
[15] = test system: Staphylococcus aureus; assay: Inhibition of FabB/FabF in methicillin-resistant Staphylococcus aureus 3158 clinical isolate assessed as antibacterial activity after 16 hrs by agar dilution method
[16] = test system: Staphylococcus aureus; assay: Inhibition of FabB/FabF in methicillin-resistant Staphylococcus aureus 3079 clinical isolate assessed as antibacterial activity after 16 hrs by agar dilution method
[17] = test system: Staphylococcus aureus; assay: Antibacterial activity against methicillin-resistant Staphylococcus aureus infected in C57BL/6J mouse model of peritonitis assessed as mouse survival at 20 mg/kg, ip dosed at 1 hr and 5 hrs post infection and measured for 7 days relative to control; assay type: functional
[18] = test system: Staphylococcus aureus; assay: Antibacterial activity against methicillin-resistant Staphylococcus aureus infected in BALB/c mouse model of skin wound assessed as retainment of fat layers at 2 mg administered topically as ointment twice daily for 7 days and measured after 24 hrs by HE staining analysis; assay type: functional, organism-based
[19] = test system: Staphylococcus aureus; assay: Inhibition of FabB/FabF in methicillin-resistant Staphylococcus aureus 3046 clinical isolate assessed as antibacterial activity after 16 hrs by agar dilution method
[20] = test system: Staphylococcus aureus; assay: Inhibition of FabB/FabF in methicillin-resistant Staphylococcus aureus 3150 clinical isolate assessed as antibacterial activity after 16 hrs by agar dilution method
[21] = test system: Staphylococcus aureus; assay: Antibacterial activity against methicillin-resistant Staphylococcus aureus infected in C57BL/6J mouse model of peritonitis assessed as mouse survival at 30 mg/kg, ip dosed at 1 hr and 5 hrs post infection and measured for 7 days relative to control; assay type: functional
[22] = test system: Staphylococcus aureus; assay: Antibacterial activity against methicillin-resistant Staphylococcus aureus infected in BALB/c mouse model of skin wound assessed as retainment of dermis layers at 2 mg administered topically as ointment twice daily for 7 days and measured and after 24 hrs by HE staining analysis; assay type: functional, organism-based

## C[C@]12C[C@@]34C=C(SC5CCCCC5)C(=O)[C@@](C)(CCC(=O)Nc5c(O)ccc(C(=O)O)c5O)[C@@H]3[C@H](C[C@@H]1C4)O2
[1]
  inhibition: Active
[2]
  inhibition: Active
[3]
  inhibition: Active
[4]
  Activity: 2.7 ×10⁶ CFU/g
[5]
  inhibition: Active
[6]
  inhibition: Active
[7]
  Activity: Active
[8]
  inhibition: Active
[9]
  antibacterial activity (disk diffusion, qualitative): Active
[10]
  Activity: Active
[11]
  Survival: inactive
[12]
  inhibition: Active
[13]
  inhibition: Active
[14]
  inhibition: Active
[15]
  inhibition: Active
[16]
  inhibition: Active
[17]
  survival at 20 mg/kg: 100%
[18]
  Activity: Active
[19]
  inhibition: Active
[20]
  inhibition: Active
[21]
  survival at 30 mg/kg: 80%
[22]
  Activity: Active

## C[C@]12C[C@@]34C=CC(=O)[C@@](C)(CCC(=O)Nc5c(O)ccc(C(=O)O)c5O)[C@@H]3[C@H](C[C@@H]1C4)O2
[2]
  MIC: 1 µg/mL (≈ 2.27 µM)
[3]
  MIC: 1 µg/mL (≈ 2.27 µM)
[5]
  MIC: 1 µg/mL (≈ 2.27 µM)
[6]
  MIC: 1 µg/mL (≈ 2.27 µM)
[8]
  MIC: 1 µg/mL (≈ 2.27 µM)
[9]
  antibacterial activity (disk diffusion, qualitative): Active
[12]
  MIC: 1 µg/mL (≈ 2.27 µM)
[13]
  MIC: 1 µg/mL (≈ 2.27 µM)
[14]
  MIC: 1 µg/mL (≈ 2.27 µM)
[15]
  MIC: 1 µg/mL (≈ 2.27 µM)
[16]
  MIC: 1 µg/mL (≈ 2.27 µM)
[19]
  MIC: 1 µg/mL (≈ 2.27 µM)
[20]
  MIC: 1 µg/mL (≈ 2.27 µM)
